Measured values as given in US8188078B2 (Sanofi-Aventis, priority 2007, dated 2012).
Where a name gives a salt, the structure may show the parent alone.

How the values were obtained:
[1] = molecular target: T1, MET (Homo sapiens, UniProt P08581); assay: Test C: inhibition of the autophosphorylation of MET, ELISA technique (pppY1230, 1234, 1235), MKN45 cells; type: cell-based
T1 construct: endogenous in cells; host or cells: MKN45 cells
Protocol: C) Inhibition of the Autophosphorylation of MET; ELISA Technique (pppY1230, 1234, 1235)
a) Cellular lysates: Sow the MKN45 cells in a 96-well plate (Cell coat BD polylysine) at 20 000 cells/well under 200 μl of medium RPMI+10% FCS+1% L-glutamine. Leave to adhere to the incubator for 24 h.
The cells are treated on the day after sowing with the products at 6 concentrations in duplicate for 1 h. At least 3 control wells are treated with the same amount of final DMSO.
Dilution of the products: Stock at 10 mM in pure DMSO—range from 10 mM to 30 μM with steps of 3 of pure DMSO—Intermediate dilutions to 1/50 in culture medium then taking of 10 μl added directly to the cells (200 μl): final range from 10000 to 30 nM.
At the end of incubation, carefully remove the supernatant and rinse with 200 μl of PBS. Then put 100 μl of lysis buffer directly in the wells on ice and incubate at 4° C. for 30 minutes. Lysis buffer: 10 mM Tris, HCl pH7.4, 100 mM NaCl, 1 mM EDTA, 1 mM EGTA, 1% Triton X-100, 10% glycerol, 0.1% SDS, 0.5% deoxycholate, 20 mM NaF, 2 mM Na3VO4, 1 mM PMSF and antiprotease cocktail.
The 100 μl of lysates are transferred to a V-bottomed polypropylene plate and ELISA is performed next or the plate is frozen at −80° C.
b) ELISA PhosphoMET BioSource Kit KH00281
In each well of the plate from the kit, add 70 μl of dilution buffer from the kit+30 μL of cell lysate or 30 μl of lysis buffer for the blank. Incubate for 2 h at room temperature, stirring gently.
Rinse the wells 4 times with 400 μl of washing buffer from the kit. Incubate with 100 μl of anti-phospho MET antibodies for 1 h at room temperature.
Rinse the wells 4 times with 400 μl of washing buffer from the kit. Incubate with 100 μl of anti-rabbit HRP antibodies for 30 minutes at room temperature (except for the wells with chromogen only).
Rinse the wells 4 times with 400 μl of washing buffer from the kit. Add 100 μL of chromogen and incubate for 30 minutes in the dark at room temperature.
Stop the reaction with 100 μl of stop solution. Read at once at […] 0.1 second in the Wallac Victor plate reader.
The products of formula (I) as defined above show cellular activity in this test between 10 nM and 10 μM.

[2] = test system: MKN45 cells; assay: Test D: cellular proliferation by 14C-thymidine pulse, MKN45 cells; type: cell-based; conditions: cell line not stated (HCT116 or MKN45)
Procedure, shortened: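 MKN45 cells (7500/well, RPMI + 10% foetal calf serum) treated with 10 concentrations, 10000 to 0.3 nM in 3-fold steps, duplicate. 14C-thymidine (0.1 μCi/well) added at 72 h; incorporation counted after 24 h pulse, 96 h total treatment.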

[3] = cellular proliferation by 14C-thymidine pulse
[4] = Homo sapiens, MKN-45, cellular proliferation by 14C-thymidine pulse

T1 sequence (P08581 25-1390): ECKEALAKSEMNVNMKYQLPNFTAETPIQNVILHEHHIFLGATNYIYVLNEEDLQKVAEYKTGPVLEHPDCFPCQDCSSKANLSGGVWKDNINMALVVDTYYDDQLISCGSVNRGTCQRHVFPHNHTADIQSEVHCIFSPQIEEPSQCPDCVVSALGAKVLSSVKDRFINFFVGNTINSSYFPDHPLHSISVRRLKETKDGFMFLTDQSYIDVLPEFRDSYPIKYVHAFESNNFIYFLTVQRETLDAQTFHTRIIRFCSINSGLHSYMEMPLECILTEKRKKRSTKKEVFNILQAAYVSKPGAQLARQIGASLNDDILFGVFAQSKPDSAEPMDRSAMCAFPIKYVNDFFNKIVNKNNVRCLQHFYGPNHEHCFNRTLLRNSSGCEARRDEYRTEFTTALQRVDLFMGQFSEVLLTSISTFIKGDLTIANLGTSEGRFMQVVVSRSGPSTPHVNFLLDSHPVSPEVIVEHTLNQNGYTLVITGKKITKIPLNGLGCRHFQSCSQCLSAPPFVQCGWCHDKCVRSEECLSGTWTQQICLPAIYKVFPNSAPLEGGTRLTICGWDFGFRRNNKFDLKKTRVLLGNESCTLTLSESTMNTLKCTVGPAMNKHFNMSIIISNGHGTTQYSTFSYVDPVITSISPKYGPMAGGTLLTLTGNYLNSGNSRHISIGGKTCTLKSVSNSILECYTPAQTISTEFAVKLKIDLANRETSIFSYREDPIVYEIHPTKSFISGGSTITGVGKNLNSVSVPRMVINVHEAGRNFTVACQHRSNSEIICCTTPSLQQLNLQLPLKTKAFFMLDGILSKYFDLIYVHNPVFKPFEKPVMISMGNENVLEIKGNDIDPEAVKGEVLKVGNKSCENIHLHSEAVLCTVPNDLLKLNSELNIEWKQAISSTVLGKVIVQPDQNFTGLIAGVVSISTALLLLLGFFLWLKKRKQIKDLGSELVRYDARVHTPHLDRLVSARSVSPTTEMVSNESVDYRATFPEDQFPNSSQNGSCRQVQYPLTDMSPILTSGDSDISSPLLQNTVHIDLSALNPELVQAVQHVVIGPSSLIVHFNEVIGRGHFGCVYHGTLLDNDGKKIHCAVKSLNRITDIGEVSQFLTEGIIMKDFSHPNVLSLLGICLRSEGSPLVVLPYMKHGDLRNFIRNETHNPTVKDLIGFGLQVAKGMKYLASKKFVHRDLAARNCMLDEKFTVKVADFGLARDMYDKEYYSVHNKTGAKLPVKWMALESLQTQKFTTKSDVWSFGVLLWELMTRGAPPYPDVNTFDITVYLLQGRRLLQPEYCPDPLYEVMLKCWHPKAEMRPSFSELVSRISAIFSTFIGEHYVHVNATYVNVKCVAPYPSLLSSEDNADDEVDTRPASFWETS

Row | Compound | IC50 [1] | IC50 [2, 3] | IC50 [2, 4]
1 | CC(Oc1cc2sc(NC(=O)NCCO)nc2cc1F)c1c(Cl)ccc(F)c1Cl (single isomer, unassigned) [Example 99, 1-{6-[(1R*)-1-(2,6-dichloro-3-fluorophenyl)ethoxy]-5-fluoro-1,3-benzothiazol-2-yl}-3-(2-hydroxyethyl)urea] | < 500 nM |  | < 500 nM
2 | CCN1CCN(CCNC(=O)Nc2nc3cc(F)c(OC(C)c4c(Cl)ccc(F)c4Cl)cc3s2)CC1 (single isomer, unassigned) [Example 101, 1-{6-[(1R*)-1-(2,6-dichloro-3-fluorophenyl)ethoxy]-5-fluoro-1,3-benzothiazol-2-yl}-3-[2-(4-ethylpiperazin-1-yl)ethyl]urea] | < 500 nM |  | < 500 nM
3 | CCN1CCN(CCNC(=O)Nc2nc3cc(F)c(OC(C)c4c(Cl)ccc(F)c4Cl)cc3s2)CC1 (single isomer, unassigned) [Example 102, 1-{6-[(1S*)-1-(2,6-dichloro-3-fluorophenyl)ethoxy]-5-fluoro-1,3-benzothiazol-2-yl}-3-[2-(4-ethylpiperazin-1-yl)ethyl]urea] | 500 to 10000 nM | 500 to 10000 nM | 
4 | CC(Oc1cc2sc(NC(=O)NCCN3CCN(C)CC3)nc2cc1F)c1c(F)ccc(Cl)c1Cl (single isomer, unassigned) [Example 116, 1-{6-[(1R*)-1-(2,3-dichloro-6-fluorophenyl)ethoxy]-5-fluoro-1,3-benzothiazol-2-yl}-3-[2-(4-methylpiperazin-1-yl)ethyl]urea] | < 500 nM |  | < 500 nM
5 | CC(Oc1cc2sc(NC(=O)NCCN3CCN(C)CC3)nc2cc1F)c1c(F)ccc(Cl)c1Cl (single isomer, unassigned) [Example 117, 1-{6-[(1S*)-1-(2,3-dichloro-6-fluorophenyl)ethoxy]-5-fluoro-1,3-benzothiazol-2-yl}-3-[2-(4-methylpiperazin-1-yl)ethyl]urea] | 500 to 10000 nM | 500 to 10000 nM | 
6 | CC(Oc1cc2sc(NC(=O)NCCN3CCCC3)nc2cc1F)c1c(F)ccc(Cl)c1Cl (single isomer, unassigned) [Example 119, 1-{6-[(1R*)-1-(2,3-dichloro-6-fluorophenyl)ethoxy]-5-fluoro-1,3-benzothiazol-2-yl}-3-[2-(pyrrolidin-1-yl)ethyl]urea] | < 500 nM |  | < 500 nM
7 | CC(Oc1ccc2nc(NC(=O)NCCN3CCOCC3)sc2c1)c1ccccc1C(F)(F)F (stereo not shown) [Example 19, 1-(2-morpholin-4-ylethyl)-3-(6-{1-[2-(trifluoromethyl)phenyl]ethoxy}-1,3-benzothiazol-2-yl)urea] | 500 to 10000 nM |  | > 10000 nM
8 | CC(Oc1ccc2nc(NC(=O)NCCCn3cccc3)sc2c1)c1c(Cl)ccc(F)c1Cl (stereo not shown) [Example 40, 1-{6-[1-(2,6-dichloro-3-fluorophenyl)ethoxy]-1,3-benzothiazol-2-yl}-3-[3-(1H-pyrrol-1-yl)propyl]urea] | 500 to 10000 nM |  | > 10000 nM
9 | CC(Oc1ccc2nc(NC(=O)NCCCN3CCC(Cc4ccccc4)CC3)sc2c1)c1c(Cl)ccc(F)c1Cl (stereo not shown) [Example 41, 1-[3-(4-benzylpiperidin-1-yl)propyl]-3-{6-[1-(2,6-dichloro-3-fluorophenyl)ethoxy]-1,3-benzothiazol-2-yl}urea] | 500 to 10000 nM |  | > 10000 nM
10 | CC(Oc1ccc2nc(NC(=O)NCCCN(C)C)sc2c1)c1c(Cl)ccc(F)c1Cl (stereo not shown) [Example 43, 1-{6-[1-(2,6-dichloro-3-fluorophenyl)ethoxy]-1,3-benzothiazol-2-yl}-3-[3-(dimethylamino)propyl]urea] | < 500 nM |  | > 10000 nM

Now from value to compound:

Row | IC50 [1] | IC50 [2, 3] | IC50 [2, 4] | Compound
11 | < 500 nM | < 500 nM |  | CC(Oc1ccc2nc(NC(=O)NCCN3CCOCC3)sc2c1)c1c(Cl)ccc(F)c1Cl (single isomer, unassigned) [Example 25, 1-{6-[(1R*)-(2,6-dichloro-3-fluorophenyl)ethoxy]-1,3-benzothiazol-2-yl}-3-(2-morpholin-4-ylethyl)urea]
12 | < 500 nM | 500 to 10000 nM |  | C[C@@H](Oc1cc2sc(NC(=O)NCCN3CCOCC3)nc2cc1F)c1c(Cl)ccc(F)c1Cl (single isomer, unassigned) [Example 32, 1-{6-[(1R)-(2,6-dichloro-3-fluorophenyl)ethoxy]-5-fluoro-1,3-benzothiazol-2-yl}-3-(2-morpholin-4-ylethyl)urea or 1-{6-[(1S)-(2,6-dichloro-3-fluorophenyl)ethoxy]-5-fluoro-1,3-benzothiazol-2-yl}-3-(2-morpholin-4-ylethyl)urea]
13 | 500 to 10000 nM | 500 to 10000 nM |  | C[C@@H](Oc1cc2sc(NC(=O)NCCN3CCOCC3)nc2cc1F)c1c(Cl)ccc(F)c1Cl (single isomer, unassigned) [Example 33, 1-{6-[(1R)-(2,6-dichloro-3-fluorophenyl)ethoxy]-5-fluoro-1,3-benzothiazol-2-yl}-3-(2-morpholin-4-ylethyl)urea or 1-{6-[(1S)-(2,6-dichloro-3-fluorophenyl)ethoxy]-5-fluoro-1,3-benzothiazol-2-yl}-3-(2-morpholin-4-ylethyl)urea]
14 | < 500 nM |  | < 500 nM | CC(Oc1ccc2nc(NC(=O)NCCN3CCN(C)CC3)sc2c1)c1c(F)ccc(Cl)c1Cl (single isomer, unassigned) [Example 109, 1-{6-[(1R*)-1-(2,3-dichloro-6-fluorophenyl)ethoxy]-1,3-benzothiazol-2-yl}-3-[2-(4-methylpiperazin-1-yl)ethyl]urea]
15 | < 500 nM |  | < 500 nM | CC(Oc1cc2sc(NC(=O)NCCN3CCOCC3)nc2cc1F)c1c(F)ccc(Cl)c1Cl (single isomer, unassigned) [Example 112, 1-{6-[(1R*)-1-(2,3-dichloro-6-fluorophenyl)ethoxy]-5-fluoro-1,3-benzothiazol-2-yl}-3-[2-(morpholin-4-yl)ethyl]urea]
16 | < 500 nM | 500 to 10000 nM |  | CC(Oc1cc2sc(NC(=O)NCCN3CCOCC3)nc2cc1F)c1c(F)ccc(Cl)c1Cl (single isomer, unassigned) [Example 113, 1-{6-[(1S*)-1-(2,3-dichloro-6-fluorophenyl)ethoxy]-5-fluoro-1,3-benzothiazol-2-yl}-3-[2-(morpholin-4-yl)ethyl]urea]
17 | < 500 nM | < 500 nM |  | CC(Oc1ccc2nc(NC(=O)NCCN3CCCC3)sc2c1)c1c(F)ccc(Cl)c1Cl (single isomer, unassigned) [Example 121, 1-{6-[(1R*)-(2,3-dichloro-6-fluorophenyl)ethoxy]-1,3-benzothiazol-2-yl}-3-[2-(pyrrolidin-1-yl)ethyl]urea]
18 | 500 to 10000 nM |  | 500 to 10000 nM | CC(Oc1ccc2nc(NC(=O)NCCN3CCOCC3)[nH]c2c1)c1c(Cl)ccc(F)c1Cl (stereo not shown) [Example 4, 4-{2-[({6-[1-(2,6-Dichloro-3-fluorophenyl)ethoxy]-1H-benzimidazol-2-yl}carbamoyl)amino]ethyl}morpholin-4-ium trifluoroacetate]
19 | 500 to 10000 nM |  | 500 to 10000 nM | CC(Oc1ccc2nc(NC(=O)NCCN3CCOCC3)sc2c1)c1c(F)cccc1F (stereo not shown) [Example 18, 1-{6-[1-(2,6-difluorophenyl)ethoxy]-1,3-benzothiazol-2-yl}-3-(2-morpholin-4-ylethyl)urea]
20 | < 500 nM |  | 500 to 10000 nM | CC(Oc1ccc2nc(NC(=O)NCCC3CCNCC3)sc2c1)c1c(Cl)ccc(F)c1Cl (stereo not shown) [Example 39, 1-{6-[1-(2,6-Dichloro-3-fluorophenyl)ethoxy]-1,3-benzothiazol-2-yl}-3-(2-piperidin-4-ylethyl)urea trifluoroacetate]
21 | < 500 nM |  | 500 to 10000 nM | CC(Oc1ccc2nc(NC(=O)NCCCN3CCOCC3)sc2c1)c1c(Cl)ccc(F)c1Cl (stereo not shown) [Example 42, 1-{6-[1-(2,6-dichloro-3-fluorophenyl)ethoxy]-1,3-benzothiazol-2-yl}-3-(3-morpholin-4-ylpropyl)urea]
22 | < 500 nM |  | < 500 nM | CC(Oc1ccc2nc(NC(=O)NCCCN3CCCCC3)sc2c1)c1c(Cl)ccc(F)c1Cl (stereo not shown) [Example 44, 1-{6-[1-(2,6-dichloro-3-fluorophenyl)ethoxy]-1,3-benzothiazol-2-yl}-3-(3-piperidin-1-ylpropyl)urea]
23 | < 500 nM |  | 500 to 10000 nM | CC(Oc1ccc2nc(NC(=O)NCCCN3CCCC3=O)sc2c1)c1c(Cl)ccc(F)c1Cl (stereo not shown) [Example 45, 1-{6-[1-(2,6-dichloro-3-fluorophenyl)ethoxy]-1,3-benzothiazol-2-yl}-3-[3-(2-oxopyrrolidin-1-yl)propyl]urea]
